Laboratory results taken from PMC10603992, “Antimicrobial and Adjuvant Potencies of Di-n-alkyl Substituted Diazalariat Ethers” (Antibiotics, 2023).
pIC50: −log10 of the molar value. ≈ marks a conversion by molar mass, not a printed value. Read-outs that look alike come from different tables or passages of the source.

Tests used:
Escherichia coli = details: administered with ½ MIC of C8LE; earlier work, no reference given; cited from earlier work
DH5α E. coli [1] = experiment: MIC against DH5α E. coli; assay type: cell-based; details: Escherichia coli, no additional antimicrobial; MICs in table limited to […]; read-out: Minimum inhibitory concentration against DH5α E. coli
DH5α E. coli [2] = system: DH5α E. coli; design: method as in PMID 15858645; details: free bases, previously reported data; cited from earlier work
K12 E. coli = experiment: MIC against K12 E. coli; assay type: cell-based; details: Escherichia coli
[3] = Turbidimetric solubility limit in MHII or PBS; assay type: physicochemical; details: DMSO ≤0.5%
S. aureus 1199B [4] = experiment: MIC against S. aureus 1199B; assay type: cell-based, Staphylococcus aureus
Tet^R E. coli = experiment: MIC against Tet^R E. coli; assay type: cell-based; details: for MIC: Escherichia coli, read-out: MIC Tet^R E. coli
[5] = system: simian kidney (COS-7) cells; experiment: Cytotoxicity against COS-7 cells; assay type: cell-based; details: Chlorocebus aethiops, COS-7, percentage survival, three independent trials
Description: (§1) The potential toxicity of 1–6 is a critical factor in their application either as an antimicrobial or an adjuvant. In vitro toxicity studies were therefore conducted using human embryonic kidney (HEK-293) and simian kidney (COS-7) cells. The graphs shown in Figure 20 show the percentage survival of each cell type as a function of lariat ether concentration on the logarithmic x-axis. In each graph, the IC50 value is specified for each compound and cell type. The value of IC50 is the concentration of lariat ether that inhibits the growth of 50% of the cells studied.
(§2) The cytotoxicity experiments were conducted as described in [44].

[6] = system: human embryonic kidney (HEK-293) cells; experiment: Cytotoxicity against HEK-293 cells; assay type: cell-based; details: Homo sapiens, HEK293, percentage survival, three independent trials
Description: as §1, §2

S. aureus (1199B) = experiment: Membrane permeability (propidium iodide / alamar blue); assay type: cell-based, Staphylococcus aureus; details: compound at ½ MIC
Description: Membrane permeability was assessed by using the dyes propidium iodide and alamar blue. […] However, when PI does enter a cell, it intercalates within the DNA structure. […] When intercalation occurs, a strong fluorescent emission can be detected. Alamar blue, based on resazurin, is a nontoxic weakly fluorescent dye that is sensitive to reduction potential within vital cells. When reduced, it is converted into highly fluorescent resorufin (7-hydroxy-3H-phenoxazin-3-one).
The combination of alamar blue and propidium iodide allowed us to assess the membrane permeability of S. aureus while confirming cellular vitality. Results of the PI/alamar blue studies with S. aureus are summarized in the graph of Figure 5. When S. aureus (1199B) was exposed to the two dyes, penetration of PI was relatively low and cellular vitality remained high. […] In general, cellular penetration and vitality correlated.
Membrane permeability studies were conducted as detailed in [48].

[7] = biological target: T1, NorA efflux pumps in S. aureus 1199B (Staphylococcus aureus, UniProt P0A0J7); experiment: Efflux pump inhibition (EthBr accumulation); assay type: cell-based; design: Efflux pump inhibition (increase in EthBr fluorescence): dose or concentration left out as unconfirmed
T1 construct: Increase in EthBr fluorescence observed by its accumulation in S. aureus 1199B cytosol; endogenous in cells; host or cells: Staphylococcus aureus 1199B (whole bacteria)
T1 sequence (P0A0J7 whole entry): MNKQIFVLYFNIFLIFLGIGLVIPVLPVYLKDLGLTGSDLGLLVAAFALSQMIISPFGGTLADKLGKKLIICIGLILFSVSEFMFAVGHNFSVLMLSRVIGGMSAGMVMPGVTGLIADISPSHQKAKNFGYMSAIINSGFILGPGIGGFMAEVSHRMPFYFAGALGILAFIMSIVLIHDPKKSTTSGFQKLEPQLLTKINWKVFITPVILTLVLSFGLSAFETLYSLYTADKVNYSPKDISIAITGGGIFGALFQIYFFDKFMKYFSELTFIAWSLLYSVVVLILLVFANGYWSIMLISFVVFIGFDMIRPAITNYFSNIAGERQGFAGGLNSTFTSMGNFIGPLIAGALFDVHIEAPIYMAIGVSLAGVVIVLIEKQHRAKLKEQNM
Description: An important reason for the choice of S. aureus 1199B for study is that its resistance to norfloxacin is known to result from the presence of the Nor A efflux pump. Efflux pumps require regulated ion balance to function so that exogeneous substances such as antibacterials can effectively be ejected. Ethidium bromide (EthBr) can penetrate bacteria and is detectable by its fluorescence. To the extent that ion homeostasis is disrupted, ion balance is deregulated, and efflux pump function is compromised or inhibited.
Experimental details have been reported in [44].

S. aureus [8] = experiment: MIC against S. aureus under various pH and media conditions; assay type: cell-based, Staphylococcus aureus; details: for Change in MIC as the pH was increased from 6.4 to 8.4: S. aureus, Mueller Hinton medium
S. aureus [9] = experiment: Membrane depolarization by DiBAC4(3) fluorescence; assay type: cell-based, Staphylococcus aureus; details: compound at ½ MIC
Description: Disruption of ion homeostasis by 1–6 should be apparent in the associated membrane depolarization. […] The dye is readily absorbed by bacteria owing to the negative internal potential. Disruption of ion homeostasis will affect both proton and potassium cation regulation. The internalized, self-quenched dye will be released and increased fluorescence will be observed.
Two types of experiments were performed to assess membrane depolarization. […] If ion homeostasis is affected by the presence of any of these compounds, the fluorescent response should increase as the lariat ether concentration increased.
A second series of experiments was performed to determine the relationship of disrupted ion homeostasis, as reflected in membrane depolarization with cellular vitality (Figure 17). […] Alamar blue (see above) was used to determine cell viability. No depolarization was apparent in the S. aureus control in the absence of a lariat ether or lariat ether derivative. Depolarization was greatest for C10LE•MeI (3). […] We note that the MIC values for S. aureus observed for 2, 3, 5, and 6 were similar.
The membrane depolarization study was conducted as described in [48].

[10] = Planar bilayer voltage clamp; details: 70 mV, KCl 450 mM, HEPES 10 mM, pH 7
Description: This compound was therefore converted into its bis(methiodide) to form C11LE•2MeI (8). It is clear from the trace shown that only spiking behavior was observed and a large opening eventually emerged. […] The formation of a large opening in the membrane comports with the expectation of increased permeability. Such an opening is also in accord with the observation (see above) of depolarization of bacterial membranes.
Figure 18 Planar bilayer voltage clamp trace for C11LE•2MeI (8) at 70 mV. Axes: Y = millivolts and X axis = 10 s per section. Conditions: soybean asolectin membrane, KCl (450 mm) buffer solution (HEPES, 10 mm, pH 7).
The planar bilayer experiments were conducted as described previously.

[11] = Dynamic light scattering of C12LE aggregation; assay type: physicochemical; details: water, in the presence of the antimicrobial or C12LE alone
Description: It is known that dialkyldiazacrowns form stable aggregates in aqueous solution [57, 62]. It was hypothesized that complexation between antimicrobials and macrocycles would alter or prevent the ability of the complex to form aggregates. […] Indeed, the particle sizes observed when chlortetracycline is present was almost indistinguishable from particle formation by C12LE (4) alone.
Measurements were performed on a Brookhaven Instruments Corp. ZetaPALS instrument at 25 °C using a 660 nm laser and correlating scattering at 90°. Samples were prepared by initially dissolving the amphiphile in filtered DMSO obtained from ThermoFisher. Next, they were diluted into 1× PBS such that DMSO was fixed at 0.5% in 15 mL sterile conical tubes. 10× PBS was obtained commercially, then diluted 10-fold in MQ H2O. The mixture was vortexed and incubated at room temperature for 2 h, then transferred to a clean quartz cuvette and equilibrated in the instrument for 10 min at 25 °C. Ten measurements consisting of 2 min runs were made on each sample. The average effective diameter was calculated with standard error reported for at least three trials.

S. aureus 1199B [12] = experiment: Growth curves; assay type: cell-based, Staphylococcus aureus; details: ½ MIC, OD600 over 24 h
Description: In the studies above, 1–6 were administered at ½ MIC concentrations. At these concentrations, no toxic effect of the compound on cells was anticipated. In order to confirm the effect of compound concentration on S. aureus viability, growth curves were conducted for each compound. In all cases, S. aureus alone was used as control. For the three C10LE compounds (1–3), 32 µM and 64 µM concentrations of norfloxacin were added to the norfloxacin-resistant S. aureus strain as an additional control. The concentration ranges for each of compounds 1–6 varied with their potencies.
The determination of growth curves was performed against S. aureus 1199B, which is norfloxacin resistant at 32 µM. Norfloxacin was used at 64 µM as a control. The compounds tested were 1–6, C10LE and C12LE and their hydrochlorides and methiodides. S. aureus 1199B was cultured overnight from a single CFU and reduced to OD600 = 0.55 before use. Samples were prepared in LB media to which was added either the norfloxacin control or the combination of norfloxacin and one of the compounds C10LE (1), C10LE•2HCl (2), C10LE•2MeI (3), C12LE (4), C12LE•2HCl (5), or C12LE•2MeI (6). Dimethylsulfoxide (DMSO) was used to solubilize the lariat ether derivative, when necessary, but its concentration was never allowed to exceed 0.5% (v/v) in all experiments. […] The absorbance of each sample (600 nm) was recorded every quarter hour for 24 h.

[13] = MHII media, 90% growth inhibition, read-out: MIC K12 E. coli
[14] = Staphylococcus aureus, pH 8.4, MHII, pH 8.4, read-out: MIC S. aureus, MHII pH 8.4
[15] = MHII media, 90% growth inhibition

## CCCCCCCCN1CCOCCOCCN(CCCCCCCC)CCOCCOCC1 [C8LE (7)]
Escherichia coli
  Fold increase in potency of rifampicin against E. coli: 20 fold
DH5α E. coli [1]
  MIC: 206 µM (≈ 100 µg/mL)
DH5α E. coli [2]
  Minimum inhibitory concentration against DH5α E. coli: >128 µM
K12 E. coli; read-out: MIC K12 E. coli, MHII media, 90% growth inhibition
  MIC: 100 µM (≈ 48.7 µg/mL)

## CCCCCCCCCC[N+]1(C)CCOCCOCC[N+](C)(CCCCCCCCCC)CCOCCOCC1 (centres unmarked) [C10LE•2MeI (3), N,N′-Di-n-decyl-4-13-diaza-18-crown-6 bis(methiodide)]
DH5α E. coli [1]
  MIC: 24 µM
[3]; Mueller Hinton II broth, 37 °C, pH 7.3, plasma or biological fluid, kinetic from dmso stock, Mueller Hinton II, pH 7.3, 2 h at 37 °C, read-out: Solubility limit in MHII
  solubility at 2 h: 64 µM
[3]; phosphate-buffered saline, 37 °C, aqueous buffer, kinetic from dmso stock, phosphate-buffered saline, 2 h at 37 °C, read-out: Solubility limit in PBS
  solubility at 2 h: ≥ 128 µM
S. aureus 1199B [4]; Staphylococcus aureus, 1199B, read-out: MIC S. aureus 1199B, MHII media, 90% growth inhibition
  MIC: 1 to 2 µM
Tet^R E. coli
  MIC: 32 µM
[5]
  pIC50: 4.28
[6]
  pIC50: 4.44
S. aureus (1199B)
  PI penetration (membrane permeability): good penetration
K12 E. coli; [13]
  MIC: 16 µM
[7]; 3 at […] µM vs reserpine at 50 µg/mL (80 µM)
  Potency as efflux pump inhibitor relative to reserpine: approximately five times more potent
S. aureus [8]
  Change in MIC as the pH was increased from 6.4 to 8.4: unchanged
S. aureus [8]; Staphylococcus aureus, MH + Ca2+, read-out: MIC S. aureus, MH + Ca^2+
  MIC: 16 µM
S. aureus [8]; Staphylococcus aureus, MH medium, read-out: MIC S. aureus, MH
  MIC: 2 µM
S. aureus [8]; Staphylococcus aureus, pH 6.4, MHII, pH 6.4, read-out: MIC S. aureus, MHII pH 6.4
  MIC: 2 µM
S. aureus [8]; Staphylococcus aureus, pH 7.4, MHII, pH 7.4, read-out: MIC S. aureus, MHII pH 7.4
  MIC: 2 µM
S. aureus [8]; [14]
  MIC: 2 µM
S. aureus [9]
  Membrane depolarization (DiBAC4(3) fluorescence): greatest

## CCCCCCCCCCC[N+]1(C)CCOCCOCC[N+](C)(CCCCCCCCCCC)CCOCCOCC1 (centres unmarked) [C11LE•2MeI (8)]
[10]
  Channel formation in planar bilayer: does not form stable channels

## CCCCCCCCCCCCN1CCOCCOCCN(CCCCCCCCCCCC)CCOCCOCC1 [C12LE (4), N,N′-Di-n-dodecyl-4-13-diaza-18-crown-6]
DH5α E. coli [1]
  MIC: > 128 µM
[3]; Mueller Hinton II, pH 7.3, 2 h at 37 °C, read-out: Solubility limit in MHII
  solubility at 2 h: 16 µM (≈ 9.58 µg/mL)
[3]; phosphate-buffered saline, 2 h at 37 °C, read-out: Solubility limit in PBS
  solubility at 2 h: 16 µM (≈ 9.58 µg/mL)
[11]
  Slope of C12LE aggregation (DLS particle size): 2.95
S. aureus 1199B [4]; [15]
  MIC S. aureus 1199B: 32 µM (≈ 19.2 µg/mL)
Tet^R E. coli
  MIC: > 64 µM
Tet^R E. coli; [15]
  MIC Tet^R E. coli: inactive
other
  melting point: 141 to 144 °C
S. aureus 1199B [12]
  Effect on bacterial growth (growth curves): growth effects were observed at ½ MIC and lower
K12 E. coli; [13]
  MIC: > 128 µM
[7]; […] µM compound
  Efflux pump inhibition (increase in EthBr fluorescence): most potent efflux pump inhibition
S. aureus [8]; MHII, pH 6.4, read-out: MIC S. aureus, MHII pH 6.4
  MIC: >16 µM
S. aureus [8]; MHII, pH 7.4, read-out: MIC S. aureus, MHII pH 7.4
  MIC: >32 µM
S. aureus [8]
  Change in MIC as the pH was increased from 6.4 to 8.4: changes in MIC were observed
S. aureus [8]; [14]
  MIC: > 64 µM
S. aureus [9]
  Membrane depolarization (DiBAC4(3) fluorescence): failed to show any significant evidence of membrane depolarization
